Reference: patent publication US11752188B2, “Compositions and methods for nutritional supplements” (DailyColors Health Inc., priority 2020, dated 2023)
Where two headings read alike, the source gives them in different places.

Experiments:
recombinant human CD39 = molecular target: T1, recombinant human CD39 (Homo sapiens, UniProt P49961); assay: CD39 in vitro enzymatic assay (ATP, colorimetric 630 nm); format: biochemical;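 further: test compound preincubated 30 min with enzyme, then 30 min reaction with ATP at room temperature, absorbance after detection reagent, 100% activity without compound, 0% without enzyme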
T1 construct: purchased BPS Bioscience 71284 (enzyme); kit #79278
T1 sequence (P49961 1-510): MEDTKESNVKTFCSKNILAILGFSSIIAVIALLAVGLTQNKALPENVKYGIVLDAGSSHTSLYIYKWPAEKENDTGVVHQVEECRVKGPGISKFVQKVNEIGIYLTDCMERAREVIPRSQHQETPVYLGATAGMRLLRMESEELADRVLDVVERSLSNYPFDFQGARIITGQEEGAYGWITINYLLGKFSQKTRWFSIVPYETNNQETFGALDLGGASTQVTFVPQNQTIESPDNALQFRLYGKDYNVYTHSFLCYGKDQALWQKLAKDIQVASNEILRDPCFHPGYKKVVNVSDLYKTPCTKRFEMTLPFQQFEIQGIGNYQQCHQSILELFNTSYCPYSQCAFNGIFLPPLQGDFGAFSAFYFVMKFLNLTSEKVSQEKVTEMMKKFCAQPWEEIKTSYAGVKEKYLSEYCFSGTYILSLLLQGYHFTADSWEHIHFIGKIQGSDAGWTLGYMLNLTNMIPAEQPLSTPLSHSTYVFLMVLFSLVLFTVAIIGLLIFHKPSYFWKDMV
Experimental: The CD39 enzymatic reactions were conducted in duplicate at room temperature for 30 minutes in a 50 μl mixture containing assay buffer, ATP, CD39 enzymes, and the test compound. Test compounds were preincubated with the enzyme for 30 minutes. Reactions were started by addition of the substrate. The 50 μl reactions were carried out in a 96-well transparent plate. After enzymatic reactions, 100 μl of Colorimetric Detection Reagent was added to the reaction mix. After a 15 minutes incubation, absorbance was measured using a Tecan plate reader at 630 nm.

recombinant human CD73 = molecular target: T2, recombinant human CD73 (Homo sapiens, UniProt P21589); assay: CD73 in vitro enzymatic assay (colorimetric 630 nm); format: biochemical
T2 construct: purchased BPS Bioscience 71184 (enzyme); kit #72055
T2 sequence (P21589 27-549): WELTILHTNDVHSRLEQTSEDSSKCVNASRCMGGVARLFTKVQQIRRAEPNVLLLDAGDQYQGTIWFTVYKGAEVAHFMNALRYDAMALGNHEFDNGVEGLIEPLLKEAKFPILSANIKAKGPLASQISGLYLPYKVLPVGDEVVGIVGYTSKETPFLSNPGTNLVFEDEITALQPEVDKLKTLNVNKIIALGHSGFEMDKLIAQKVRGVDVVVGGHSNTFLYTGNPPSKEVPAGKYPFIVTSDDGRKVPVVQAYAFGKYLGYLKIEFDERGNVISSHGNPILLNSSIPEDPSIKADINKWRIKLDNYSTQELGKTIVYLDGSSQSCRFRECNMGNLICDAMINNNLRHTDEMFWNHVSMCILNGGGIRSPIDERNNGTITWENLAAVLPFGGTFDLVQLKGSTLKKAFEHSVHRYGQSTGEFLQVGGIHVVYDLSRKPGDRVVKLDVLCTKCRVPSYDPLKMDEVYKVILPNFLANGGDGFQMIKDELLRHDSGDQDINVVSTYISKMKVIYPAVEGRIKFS
From the text: Here, D5 is the Yellow Blend, D9 is the Purple Blend, D21 is the Green Blend, D13 is the Red Blend, and D31 is CBD. As before, the red blend included Apple Extract, Pomegranate Extract, Tomato Powder, Beet; the green blend included Olive Extract, Rosemary Extract, Green Coffee Bean Extract, Kale; the orange/yellow blend included Onion Extract, Ginger Extract, Grapefruit Extract, Carrot; and the purple/blue blend included Grape, Blueberry Extract, Currant, Elderberry.
Assay Conditions: In general, all assays points were done by following the CD39 and CD73 Inhibitor Screening Assay Kit protocol (BPS Bioscience, #79278 and 72055, respectively). The CD73 enzymatic reactions were conducted in duplicate at room temperature for 30 minutes in a 50 μl mixture containing assay buffer, […], CD73 enzymes, and the test compound. Test compounds were preincubated with the enzyme for 30 minutes. Reactions were started by addition of the substrate. The 50 μl reactions were carried out in a 96-well transparent plate. After enzymatic reactions, 100 μl of Colorimetric Detection Reagent was added to the reaction mix. After a 15 minutes incubation, absorbance was measured using a Tecan plate reader at 630 nm.
Data Analysis: Enzyme activity assays were performed in duplicates at each concentration. The Absorbance intensity data were analyzed and compared. In the absence of the compound, the intensity in each data set was defined as 100% (Ce) activity. In the absence of enzyme, the intensity in each data set was defined as 0% (C0) activity.

## POM-1
Recombinant human CD39; 0.001 μM, TABLE 79
  Activity (%) Rep. 1: 79%
  Activity (%) Rep. 2: 78%
  CD39 Inhibition (%): 21%
  Net absorbance Rep. 1: 0.42
  Net absorbance Rep. 2: 0.41
Recombinant human CD39; 0.001 μM, TABLE 80
  Activity (%) Rep. 1: 99%
  Activity (%) Rep. 2: 90%
  Inhibition (%): 5%
  Net absorbance Rep. 1: 0.281
  Net absorbance Rep. 2: 0.254
Recombinant human CD39; 0.001 μM, TABLE 81
  Activity (%) Rep. 1: 96%
  Activity (%) Rep. 2: 92%
  Inhibition (%): 6%
  Net absorbance Rep. 1: 0.51
  Net absorbance Rep. 2: 0.49
Recombinant human CD39; 0.001 μM, TABLE 83
  Activity (%) Rep. 1: 86%
  Activity (%) Rep. 2: 89%
  Inhibition (%): 13%
  Net absorbance Rep. 1: 0.25
  Net absorbance Rep. 2: 0.26
Recombinant human CD39; 0.001 μM, TABLE 85
  Activity (%) Repeat 1: 85%
  Activity (%) Repeat 2: 89%
  Inhibition (%): 13%
  Net Signal (Absorbance) Repeat 1: 0.27
  Net Signal (Absorbance) Repeat 2: 0.29
Recombinant human CD39; 0.01 μM, TABLE 79
  Activity (%) Rep. 1: 49%
  Activity (%) Rep. 2: 56%
  CD39 Inhibition (%): 47%
  Net absorbance Rep. 1: 0.26
  Net absorbance Rep. 2: 0.30
Recombinant human CD39; 0.01 μM, TABLE 80
  Activity (%) Rep. 1: 54%
  Activity (%) Rep. 2: 51%
  Inhibition (%): 47%
  Net absorbance Rep. 1: 0.154
  Net absorbance Rep. 2: 0.145
Recombinant human CD39; 0.01 μM, TABLE 81
  Activity (%) Rep. 1: 36%
  Activity (%) Rep. 2: 37%
  Inhibition (%): 64%
  Net absorbance Rep. 1: 0.19
  Net absorbance Rep. 2: 0.20
Recombinant human CD39; 0.01 μM, TABLE 83
  Activity (%) Rep. 1: 67%
  Activity (%) Rep. 2: 66%
  Inhibition (%): 33%
  Net absorbance Rep. 1: 0.20
  Net absorbance Rep. 2: 0.19
Recombinant human CD39; 0.01 μM, TABLE 85
  Activity (%) Repeat 1: 65%
  Activity (%) Repeat 2: 68%
  Inhibition (%): 34%
  Net Signal (Absorbance) Repeat 1: 0.21
  Net Signal (Absorbance) Repeat 2: 0.22
Recombinant human CD39; 0.1 μM, TABLE 79
  Activity (%) Rep. 1: 14%
  Activity (%) Rep. 2: 19%
  CD39 Inhibition (%): 84%
  Net absorbance Rep. 1: 0.08
  Net absorbance Rep. 2: 0.10
Recombinant human CD39; 0.1 μM, TABLE 80
  Activity (%) Rep. 1: 26%
  Activity (%) Rep. 2: 26%
  Inhibition (%): 74%
  Net absorbance Rep. 1: 0.073
  Net absorbance Rep. 2: 0.073
Recombinant human CD39; 0.1 μM, TABLE 81
  Activity (%) Rep. 1: 16%
  Activity (%) Rep. 2: 10%
  Inhibition (%): 87%
  Net absorbance Rep. 1: 0.08
  Net absorbance Rep. 2: 0.06
Recombinant human CD39; 0.1 μM, TABLE 83
  Activity (%) Rep. 1: 30%
  Activity (%) Rep. 2: 29%
  Inhibition (%): 70%
  Net absorbance Rep. 1: 0.09
  Net absorbance Rep. 2: 0.09
Recombinant human CD39; 0.1 μM, TABLE 85
  Activity (%) Repeat 1: 39%
  Activity (%) Repeat 2: 38%
  Inhibition (%): 61%
  Net Signal (Absorbance) Repeat 1: 0.13
  Net Signal (Absorbance) Repeat 2: 0.13

## Nc1ncnc2c1ncn2[C@@H]1O[C@H](COP(=O)(O)CP(=O)(O)O)[C@@H](O)[C@H]1O [AMPCP]
Recombinant human CD73; 0.1 μM, TABLE 93
  Activity (%) Repeat 1: 81%
  Activity (%) Repeat 2: 96%
  Inhibition (%): 12%
  Net Signal (Absorbance) Repeat 1: 0.14
  Net Signal (Absorbance) Repeat 2: 0.17
Recombinant human CD73; 1 μM, TABLE 90
  Activity (%) Rep. 1: 92%
  Activity (%) Rep. 2: 96%
  Inhibition (%): 6%
  Net absorbance Rep. 1: 0.368
  Net absorbance Rep. 2: 0.383
Recombinant human CD73; 1 μM, TABLE 91
  Activity (%) Rep. 1: 89%
  Activity (%) Rep. 2: 89%
  Inhibition (%): 11%
  Net absorbance Rep. 1: 0.30
  Net absorbance Rep. 2: 0.30
Recombinant human CD73; 1 μM, TABLE 93
  Activity (%) Repeat 1: 53%
  Activity (%) Repeat 2: 64%
  Inhibition (%): 41%
  Net Signal (Absorbance) Repeat 1: 0.09
  Net Signal (Absorbance) Repeat 2: 0.11
Recombinant human CD73; 10 μM, TABLE 90
  Activity (%) Rep. 1: 74%
  Activity (%) Rep. 2: 76%
  Inhibition (%): 25%
  Net absorbance Rep. 1: 0.298
  Net absorbance Rep. 2: 0.306
Recombinant human CD73; 10 μM, TABLE 91
  Activity (%) Rep. 1: 52%
  Activity (%) Rep. 2: 59%
  Inhibition (%): 45%
  Net absorbance Rep. 1: 0.18
  Net absorbance Rep. 2: 0.20
Recombinant human CD73; 10 μM, TABLE 93
  Activity (%) Repeat 1: 20%
  Activity (%) Repeat 2: 28%
  Inhibition (%): 76%
  Net Signal (Absorbance) Repeat 1: 0.04
  Net Signal (Absorbance) Repeat 2: 0.05
Recombinant human CD73; 100 μM, TABLE 90
  Activity (%) Rep. 1: 17%
  Activity (%) Rep. 2: 22%
  Inhibition (%): 80%
  Net absorbance Rep. 1: 0.071
  Net absorbance Rep. 2: 0.089
Recombinant human CD73; 100 μM, TABLE 91
  Activity (%) Rep. 1: 13%
  Activity (%) Rep. 2: 12%
  Inhibition (%): 88%
  Net absorbance Rep. 1: 0.04
  Net absorbance Rep. 2: 0.04

## C=C(C)[C@@H]1CCC(C)=C[C@H]1c1c(O)cc(CCCCC)cc1O [D31, CBD]
Recombinant human CD39; 0.0004%, TABLE 81
  Activity (%) Rep. 1: 93%
  Activity (%) Rep. 2: 91%
  Inhibition (%): 8%
  Net absorbance Rep. 1: 0.50
  Net absorbance Rep. 2: 0.49
Recombinant human CD39; 0.002%, TABLE 81
  Activity (%) Rep. 1: 90%
  Activity (%) Rep. 2: 92%
  Inhibition (%): 9%
  Net absorbance Rep. 1: 0.48
  Net absorbance Rep. 2: 0.49
Recombinant human CD39; 0.01%, TABLE 81
  Activity (%) Rep. 1: 96%
  Activity (%) Rep. 2: 103%
  Inhibition (%): 1%
  Net absorbance Rep. 1: 0.52
  Net absorbance Rep. 2: 0.55
Recombinant human CD73; 0.0004%, TABLE 91
  Activity (%) Rep. 1: 104%
  Activity (%) Rep. 2: 101%
  Inhibition (%): 0%
  Net absorbance Rep. 1: 0.35
  Net absorbance Rep. 2: 0.34
Recombinant human CD73; 0.002%, TABLE 91
  Activity (%) Rep. 1: 103%
  Activity (%) Rep. 2: 100%
  Inhibition (%): 0%
  Net absorbance Rep. 1: 0.35
  Net absorbance Rep. 2: 0.34
Recombinant human CD73; 0.01%, TABLE 91
  Activity (%) Rep. 1: 106%
  Activity (%) Rep. 2: 98%
  Inhibition (%): 0%
  Net absorbance Rep. 1: 0.35
  Net absorbance Rep. 2: 0.33

## O=c1c(O)c(-c2ccc(O)c(O)c2)oc2cc(O)cc(O)c12 [Quercetin]
Recombinant human CD73; 1 μM, TABLE 89
  Net absorbance Rep. 1: 0.40
  Net absorbance Rep. 2: 0.36
  inhibition at 1 µM: 13%
Recombinant human CD73; 1 μM, TABLE 89, read-out: Activity (%) Rep. 1
  activity at 1 µM: 92%
Recombinant human CD73; 1 μM, TABLE 89, read-out: Activity (%) Rep. 2
  activity at 1 µM: 82%
Recombinant human CD73; 10 μM, TABLE 89
  Net absorbance Rep. 1: 0.23
  Net absorbance Rep. 2: 0.25
  inhibition at 10 µM: 44%
Recombinant human CD73; 10 μM, TABLE 89, read-out: Activity (%) Rep. 1
  activity at 10 µM: 53%
Recombinant human CD73; 10 μM, TABLE 89, read-out: Activity (%) Rep. 2
  activity at 10 µM: 58%
Recombinant human CD73; 100 μM, TABLE 89
  Net absorbance Rep. 1: 0.12
  Net absorbance Rep. 2: 0.08
  inhibition at 100 µM: 78%
Recombinant human CD73; 100 μM, TABLE 89, read-out: Activity (%) Rep. 1
  activity at 100 µM: 27%
Recombinant human CD73; 100 μM, TABLE 89, read-out: Activity (%) Rep. 2
  activity at 100 µM: 17%
